Test results taken from BindingDB's records for doi:10.1021/jm015552m (Universita' Degli Studi Di Siena, 2001).

Tests used:
[1] = biological target: Glutamate receptor 1 (Rattus norvegicus) (UniProt P19490); experiment: Binding affinity towards GluR1 receptor from rat brain
[2] = biological target: Glutamate receptor 1 (Rattus norvegicus) (UniProt P19490); experiment: The potency at recombinant rat AMPA-R was measured on GluR1 receptor expressed in Xenopus Laevis oocytes

Chain of Glutamate receptor 1 (Rattus norvegicus) (P19490 whole entry, looked up): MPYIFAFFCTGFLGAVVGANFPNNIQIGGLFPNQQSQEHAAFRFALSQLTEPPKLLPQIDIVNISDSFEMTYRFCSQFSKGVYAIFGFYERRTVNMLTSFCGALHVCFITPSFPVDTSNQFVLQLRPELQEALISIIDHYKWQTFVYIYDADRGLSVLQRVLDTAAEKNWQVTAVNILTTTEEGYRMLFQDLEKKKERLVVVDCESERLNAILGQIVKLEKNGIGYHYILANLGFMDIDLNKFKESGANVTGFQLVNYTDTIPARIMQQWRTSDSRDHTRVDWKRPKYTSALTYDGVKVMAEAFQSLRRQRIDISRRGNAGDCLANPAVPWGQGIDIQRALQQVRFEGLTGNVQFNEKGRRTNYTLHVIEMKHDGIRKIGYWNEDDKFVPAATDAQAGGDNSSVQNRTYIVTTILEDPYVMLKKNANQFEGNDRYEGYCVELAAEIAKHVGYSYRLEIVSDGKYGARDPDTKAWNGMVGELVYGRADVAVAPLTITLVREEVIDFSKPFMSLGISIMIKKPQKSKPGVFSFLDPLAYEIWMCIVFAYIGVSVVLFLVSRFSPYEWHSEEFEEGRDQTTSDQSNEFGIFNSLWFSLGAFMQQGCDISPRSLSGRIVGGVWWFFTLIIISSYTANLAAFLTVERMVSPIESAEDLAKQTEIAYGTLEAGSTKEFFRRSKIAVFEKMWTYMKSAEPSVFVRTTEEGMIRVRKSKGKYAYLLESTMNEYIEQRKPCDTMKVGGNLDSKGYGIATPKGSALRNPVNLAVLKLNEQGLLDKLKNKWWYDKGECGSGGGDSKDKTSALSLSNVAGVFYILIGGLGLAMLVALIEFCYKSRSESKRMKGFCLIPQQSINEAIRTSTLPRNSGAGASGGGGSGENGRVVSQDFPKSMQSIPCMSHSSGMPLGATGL

N[C@@H](Cn1c2c(c(=O)[nH]c1=O)CCC2)C(=O)O [2-Amino-3-(2,4-dioxo-2,3,4,5,6,7-hexahydro-cyclopentapyrimidin-1-yl)-propionic acid]
Ki [1]: 0.109 µM
EC50 [2]: 24.9 µM
